Assay results as given in patent US11214803B2, “Modulators of YAP1 expression” (Ionis Pharmaceuticals, Inc., priority 2019, dated 2022).
Strand notation (5' to 3'): a small letter for the sugar, then the base; units joined by * are phosphorothioate-linked, units joined directly phosphodiester-linked; [ ] holds rarer units or linkages, { } end groups; capitals alone tell only the bases. k = constrained ethyl (cEt); [5mC] = 5-methylcytosine; d = 2'-deoxy (DNA)

Test system: Yap1 mRNA
Experiment: Dose-dependent inhibition of human Yap1 in A-431 cells (Example 8, 10,000 cells per well, RTS4814)
Format: cell-based
Settings: free uptake, approximately 48 hours, RTS4814; for Yap1 mRNA, % UTC: A-431 cells, 10,000 cells per well; for IC50: A-431 cells, linear regression on log/linear plot
Procedure: Modified oligonucleotides described in the studies above were tested at various doses in A-431 cells. Cultured A-431 cells at a density of 10,000 cells per well were treated using free uptake with modified oligonucleotides diluted to concentrations described in the tables below. After approximately 48 hours, Yap1 mRNA levels were measured as previously described using the Human Yap1 primer-probe set RTS4814. Yap1 mRNA levels were normalized to total RNA content, as measured by RIBOGREEN®. Results are presented in the tables below as percent control of the amount of Yap1 mRNA relative to untreated control cells (% UTC). IC50s were calculated using a linear regression on a log/linear plot of the data in excel.

## 1074630 (antisense kA*kG*kA*dG*dA*dT*dT*dT*dT*dA*dT*dG*d[5mC]*k[5mC]*kT*kG) [compound 1074630]
31.3 nM
  Yap1 mRNA, % UTC: 57 % UTC
125.0 nM
  Yap1 mRNA, % UTC: 23 % UTC
500.0 nM
  Yap1 mRNA, % UTC: 10 % UTC
2000.00 nM
  Yap1 mRNA, % UTC: 6 % UTC
  IC50: < 20 nM

## 1075939 (antisense k[5mC]*kT*kT*dG*dA*dA*dT*dA*dT*dA*dT*dG*dG*kG*kT*kT) [compound 1075939]
31.3 nM
  Yap1 mRNA, % UTC: 46 % UTC
125.0 nM
  Yap1 mRNA, % UTC: 19 % UTC
500.0 nM
  Yap1 mRNA, % UTC: 10 % UTC
2000.00 nM
  Yap1 mRNA, % UTC: 8 % UTC
  IC50: < 20 nM

## 1075146 (kG*kT*kA*dT*dT*dA*dA*dG*dG*dG*dA*dT*dT*kT*kT*k[5mC]; antisense) [compound 1075146]
31.3 nM
  Yap1 mRNA, % UTC: 67 % UTC
125.0 nM
  Yap1 mRNA, % UTC: 38 % UTC
500.0 nM
  Yap1 mRNA, % UTC: 16 % UTC
2000.00 nM
  Yap1 mRNA, % UTC: 8 % UTC
  IC50: 100 nM

## 1076449 (k[5mC]*k[5mC]*kT*dT*dA*dT*dA*dA*dT*dG*d[5mC]*dA*dA*kT*k[5mC]*k[5mC]; antisense) [compound 1076449]
31.3 nM
  Yap1 mRNA, % UTC: 44 % UTC
125.0 nM
  Yap1 mRNA, % UTC: 8 % UTC
500.0 nM
  Yap1 mRNA, % UTC: 3 % UTC
2000.00 nM
  Yap1 mRNA, % UTC: 2 % UTC
  IC50: < 20 nM

## 1075081 (antisense kG*kA*kT*dT*dA*d[5mC]*dA*dA*dA*dG*dA*d[5mC]*dA*kG*k[5mC]*k[5mC]) [compound 1075081]
31.3 nM
  Yap1 mRNA, % UTC: 76 % UTC
125.0 nM
  Yap1 mRNA, % UTC: 50 % UTC
500.0 nM
  Yap1 mRNA, % UTC: 22 % UTC
2000.00 nM
  Yap1 mRNA, % UTC: 9 % UTC
  IC50: 100 nM

## 1075207 (k[5mC]*kT*kA*dT*dT*dA*dA*dA*dT*dG*dA*dG*d[5mC]*kA*k[5mC]*k[5mC]; antisense) [compound 1075207]
31.3 nM
  Yap1 mRNA, % UTC: 82 % UTC
125.0 nM
  Yap1 mRNA, % UTC: 51 % UTC
500.0 nM
  Yap1 mRNA, % UTC: 17 % UTC
2000.00 nM
  Yap1 mRNA, % UTC: 7 % UTC
  IC50: 100 nM

## 1074595 (DNA kT*kA*kG*dA*dA*dG*dT*dA*dG*dG*dA*dG*d[5mC]*kA*kA*kG; antisense) [compound 1074595]
31.3 nM
  Yap1 mRNA, % UTC: 67 % UTC
125.0 nM
  Yap1 mRNA, % UTC: 21 % UTC
500.0 nM
  Yap1 mRNA, % UTC: 8 % UTC
2000.00 nM
  Yap1 mRNA, % UTC: 4 % UTC
  IC50: 40 nM

## 1074443 (kT*k[5mC]*kA*dG*dA*d[5mC]*d[5mC]*dA*dG*dT*dA*dA*dA*kT*k[5mC]*kA; antisense) [compound 1074443]
31.3 nM
  Yap1 mRNA, % UTC: 69 % UTC
125.0 nM
  Yap1 mRNA, % UTC: 35 % UTC
500.0 nM
  Yap1 mRNA, % UTC: 14 % UTC
2000.00 nM
  Yap1 mRNA, % UTC: 8 % UTC
  IC50: 100 nM

## 1076298 (kG*kT*kT*dA*dT*dA*dA*dA*dG*dA*d[5mC]*d[5mC]*d[5mC]*kA*kA*kT; antisense) [compound 1076298]
31.3 nM
  Yap1 mRNA, % UTC: 92 % UTC
125.0 nM
  Yap1 mRNA, % UTC: 58 % UTC
500.0 nM
  Yap1 mRNA, % UTC: 29 % UTC
2000.00 nM
  Yap1 mRNA, % UTC: 18 % UTC
  IC50: 200 nM

## 1074726 (antisense kG*kG*kT*dA*dT*dA*dA*d[5mC]*dT*dG*dG*dG*d[5mC]*kA*kA*kA) [compound 1074726]
31.3 nM
  Yap1 mRNA, % UTC: 26 % UTC
125.0 nM
  Yap1 mRNA, % UTC: 8 % UTC
500.0 nM
  Yap1 mRNA, % UTC: 4 % UTC
2000.00 nM
  Yap1 mRNA, % UTC: 3 % UTC
  IC50: < 20 nM

## 1076393 (antisense k[5mC]*kT*kT*dT*dA*d[5mC]*dT*dT*dA*d[5mC]*dT*dG*dG*kT*kG*kG) [compound 1076393]
31.3 nM
  Yap1 mRNA, % UTC: 54 % UTC
125.0 nM
  Yap1 mRNA, % UTC: 20 % UTC
500.0 nM
  Yap1 mRNA, % UTC: 8 % UTC
2000.00 nM
  Yap1 mRNA, % UTC: 5 % UTC
  IC50: < 20 nM

## 1076327 (kG*kA*kT*dA*dA*dG*d[5mC]*dA*dA*dG*dG*dT*dT*k[5mC]*kT*k[5mC]; antisense) [compound 1076327]
31.3 nM
  Yap1 mRNA, % UTC: 73 % UTC
125.0 nM
  Yap1 mRNA, % UTC: 38 % UTC
500.0 nM
  Yap1 mRNA, % UTC: 17 % UTC
2000.00 nM
  Yap1 mRNA, % UTC: 9 % UTC
  IC50: 100 nM

## 1074409 (kG*kG*kA*dT*dT*dA*dA*dA*dG*dT*dA*dT*d[5mC]*kT*kT*kG; antisense) [compound 1074409]
31.3 nM
  Yap1 mRNA, % UTC: 60 % UTC
125.0 nM
  Yap1 mRNA, % UTC: 30 % UTC
500.0 nM
  Yap1 mRNA, % UTC: 13 % UTC
2000.00 nM
  Yap1 mRNA, % UTC: 7 % UTC
  IC50: 40 nM

## 1074535 (kG*kT*kA*dA*dT*dA*dG*d[5mC]*dT*d[5mC]*dT*dT*dT*k[5mC]*kT*kA; antisense) [compound 1074535]
31.3 nM
  Yap1 mRNA, % UTC: 57 % UTC
125.0 nM
  Yap1 mRNA, % UTC: 21 % UTC
500.0 nM
  Yap1 mRNA, % UTC: 7 % UTC
2000.00 nM
  Yap1 mRNA, % UTC: 5 % UTC
  IC50: < 20 nM

## 1076459 (k[5mC]*kT*kT*d[5mC]*dA*dA*d[5mC]*dA*dA*dG*dA*d[5mC]*dA*kG*kG*kT; antisense) [compound 1076459]
31.3 nM
  Yap1 mRNA, % UTC: 67 % UTC
125.0 nM
  Yap1 mRNA, % UTC: 32 % UTC
500.0 nM
  Yap1 mRNA, % UTC: 13 % UTC
2000.00 nM
  Yap1 mRNA, % UTC: 7 % UTC
  IC50: 100 nM

## 1075137 (kG*kA*kT*dT*dA*dA*dA*dT*dA*d[5mC]*dT*dG*dA*k[5mC]*k[5mC]*kA; antisense) [compound 1075137]
31.3 nM
  Yap1 mRNA, % UTC: 70 % UTC
125.0 nM
  Yap1 mRNA, % UTC: 22 % UTC
500.0 nM
  Yap1 mRNA, % UTC: 8 % UTC
2000.00 nM
  Yap1 mRNA, % UTC: 4 % UTC
  IC50: 100 nM

## 1076483 (kA*k[5mC]*kG*dG*dG*dA*dA*dA*dT*d[5mC]*dA*dT*dA*kT*kA*kG; antisense) [compound 1076483]
31.3 nM
  Yap1 mRNA, % UTC: 63 % UTC
125.0 nM
  Yap1 mRNA, % UTC: 27 % UTC
500.0 nM
  Yap1 mRNA, % UTC: 11 % UTC
2000.00 nM
  Yap1 mRNA, % UTC: 6 % UTC
  IC50: 40 nM

## 1076491 (kA*kG*k[5mC]*d[5mC]*dA*dA*dA*dA*dT*dA*dG*dG*dT*kG*kA*kG; antisense) [compound 1076491]
31.3 nM
  Yap1 mRNA, % UTC: 81 % UTC
125.0 nM
  Yap1 mRNA, % UTC: 45 % UTC
500.0 nM
  Yap1 mRNA, % UTC: 21 % UTC
2000.00 nM
  Yap1 mRNA, % UTC: 10 % UTC
  IC50: 100 nM

## 1076067 (kG*k[5mC]*kA*dT*dA*dT*dA*dA*dG*dA*dT*dG*dT*kT*kT*kG; antisense) [compound 1076067]
31.3 nM
  Yap1 mRNA, % UTC: 45 % UTC
125.0 nM
  Yap1 mRNA, % UTC: 13 % UTC
500.0 nM
  Yap1 mRNA, % UTC: 5 % UTC
2000.00 nM
  Yap1 mRNA, % UTC: 4 % UTC
  IC50: < 20 nM

## 1074758 (k[5mC]*kA*kG*dT*dT*dA*dA*dG*d[5mC]*dA*d[5mC]*dT*dT*kT*kT*kA; antisense) [compound 1074758]
31.3 nM
  Yap1 mRNA, % UTC: 74 % UTC
125.0 nM
  Yap1 mRNA, % UTC: 23 % UTC
500.0 nM
  Yap1 mRNA, % UTC: 8 % UTC
2000.00 nM
  Yap1 mRNA, % UTC: 5 % UTC
  IC50: 100 nM

## 1075781 (k[5mC]*kA*kT*dA*dT*dA*dT*dT*dG*dT*dG*dA*d[5mC]*kT*kT*k[5mC]; antisense) [compound 1075781]
31.3 nM
  Yap1 mRNA, % UTC: 52 % UTC
125.0 nM
  Yap1 mRNA, % UTC: 15 % UTC
500.0 nM
  Yap1 mRNA, % UTC: 4 % UTC
2000.00 nM
  Yap1 mRNA, % UTC: 3 % UTC
  IC50: < 20 nM

## 1075968 (kT*kA*kT*dT*dT*dA*dA*dG*d[5mC]*d[5mC]*dA*dA*dA*k[5mC]*k[5mC]*kG; antisense) [compound 1075968]
31.3 nM
  Yap1 mRNA, % UTC: 74 % UTC
125.0 nM
  Yap1 mRNA, % UTC: 37 % UTC
500.0 nM
  Yap1 mRNA, % UTC: 11 % UTC
2000.00 nM
  Yap1 mRNA, % UTC: 5 % UTC
  IC50: 100 nM

## 1074852 (kA*kA*kT*dT*dG*dT*dT*dA*dT*dG*dA*dT*dA*kG*kG*k[5mC]; antisense) [compound 1074852]
31.3 nM
  Yap1 mRNA, % UTC: 36 % UTC
125.0 nM
  Yap1 mRNA, % UTC: 11 % UTC
500.0 nM
  Yap1 mRNA, % UTC: 4 % UTC
2000.00 nM
  Yap1 mRNA, % UTC: 4 % UTC
  IC50: < 20 nM
